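Each compound was tested at five concentrations against cells in 96-well plates for 48 hours. GI50 marks 50% less growth.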 Activity calls are given as the source filed them. No stated cut-off is given here; in the data, active = GI50 up to about 1.1 µM and inactive = higher.
Legend:
Test in all cases: NCI tumour cell line growth inhibition, 48 h
SK-MEL-28 = tested on: SK-MEL-28
SF-268 = tested on: SF-268
MCF7 = tested on: MCF7
HCC 2998 = tested on: HCC 2998
SK-MEL-5 = tested on: SK-MEL-5
Malme-3M = tested on: Malme-3M
HCT-15 = tested on: HCT-15
ACHN = tested on: ACHN
DU-145 = tested on: DU-145
MOLT-4 = tested on: MOLT-4
MDA-MB-231 = tested on: MDA-MB-231
NCI-H226 = tested on: NCI-H226
SNB-75 = tested on: SNB-75
KM12 = tested on: KM12
UACC-257 = tested on: UACC-257
A498 = tested on: A498
NCI/ADR-RES = tested on: NCI/ADR-RES
SF-539 = tested on: SF-539
HT-29 = tested on: HT-29

Row | Structure (SMILES) | GI50 (SK-MEL-28) | GI50 (SF-268) | GI50 (MCF7) | GI50 (HCC 2998) | GI50 (SK-MEL-5) | GI50 (Malme-3M) | GI50 (HCT-15) [µM] | GI50 (ACHN) | GI50 (DU-145) | GI50 (MOLT-4) | GI50 (MDA-MB-231) | GI50 (NCI-H226) | GI50 (SNB-75) | GI50 (KM12) | GI50 (UACC-257) | GI50 (A498) | GI50 (NCI/ADR-RES) | GI50 (SF-539) | GI50 (HT-29)
1 | c1ccc(-c2cn3c(nc4ccccc43)c(-c3ccccc3)n2)cc1 | > 100 µM (inactive) | > 50.6 µM (inactive) | 69.7 µM (inactive) | > 100 µM (inactive) | 84.3 µM (inactive) | > 96.2 µM (inactive) | > 100 | > 100 µM (inactive) | > 100 µM (inactive) | > 100 µM (inactive) | > 100 µM (inactive) | > 60.8 µM (inactive) | 14.5 µM (inactive) | > 100 µM (inactive) | > 100 µM (inactive) | 44.6 µM (inactive) | 47.6 µM (inactive) | 27.9 µM (inactive) | 71 µM (inactive)
2 | CNc1ccc(Cl)cc1S(=O)(=O)c1ccccc1[N+](=O)[O-] | > 100 µM (inactive) | > 100 µM (inactive) | > 100 µM (inactive) | > 100 µM (inactive) | 46.7 µM (inactive) | > 100 µM (inactive) | > 100 | > 100 µM (inactive) | > 100 µM (inactive) | > 100 µM (inactive) | > 100 µM (inactive) | > 100 µM (inactive) | > 100 µM (inactive) | – | – | > 100 µM (inactive) | > 100 µM (inactive) | > 100 µM (inactive) | > 100 µM (inactive)
3 | O=C(N/N=C/c1ccc2c(c1)CCC2)c1ccccc1O | 23.5 µM (inactive) | 23.8 µM (inactive) | 16.2 µM (inactive) | 13.3 µM (inactive) | 33.9 µM (inactive) | 21.4 µM (inactive) | 22.9 | 18.6 µM (inactive) | 48 µM (inactive) | 36.9 µM (inactive) | 19.5 µM (inactive) | 32.1 µM (inactive) | 16.8 µM (inactive) | 20.9 µM (inactive) | 28.6 µM (inactive) | 15.7 µM (inactive) | 24.4 µM (inactive) | 31.5 µM (inactive) | 27.3 µM (inactive)
4 | Clc1ccc(Cl)c(/N=N\c2cc3c4c(c2)CCN4CCC3)c1 | > 10 µM (inactive) | > 10 µM (inactive) | > 10 µM (inactive) | > 10 µM (inactive) | > 10 µM (inactive) | > 10 µM (inactive) | > 10 | > 10 µM (inactive) | > 10 µM (inactive) | > 10 µM (inactive) | > 10 µM (inactive) | > 10 µM (inactive) | > 10 µM (inactive) | > 10 µM (inactive) | > 10 µM (inactive) | > 10 µM (inactive) | > 10 µM (inactive) | > 10 µM (inactive) | > 10 µM (inactive)
5 | CCOC(=O)N/N=C/C1=NN(C(=O)OCC)[S+]([O-])C1C (configuration not stated) | > 100 µM (inactive) | > 100 µM (inactive) | > 100 µM (inactive) | > 100 µM (inactive) | > 100 µM (inactive) | > 100 µM (inactive) | > 100 | > 100 µM (inactive) | > 100 µM (inactive) | > 100 µM (inactive) | > 100 µM (inactive) | > 100 µM (inactive) | > 100 µM (inactive) | > 100 µM (inactive) | > 100 µM (inactive) | > 100 µM (inactive) | > 100 µM (inactive) | > 100 µM (inactive) | > 100 µM (inactive)
6 | O=[N+]([O-])c1cc(-c2nc(-c3ccccc3)c(-c3ccccc3)[nH]2)c(O)c([N+](=O)[O-])c1 | 31.7 µM (inactive) | 30.1 µM (inactive) | 24.7 µM (inactive) | 16.6 µM (inactive) | 17.7 µM (inactive) | 21.1 µM (inactive) | 15.8 | 21.6 µM (inactive) | 21.9 µM (inactive) | 22.8 µM (inactive) | 22.4 µM (inactive) | 20.1 µM (inactive) | 23 µM (inactive) | 24.9 µM (inactive) | 24.2 µM (inactive) | 20.8 µM (inactive) | 19.1 µM (inactive) | 19.5 µM (inactive) | 16.8 µM (inactive)
7 | C=CCN(CCNS(=O)(=O)c1ccc(C)cc1)S(=O)(=O)c1ccc(C)cc1 | > 91.4 µM (inactive) | 10.4 µM (inactive) | > 51.9 µM (inactive) | > 69.5 µM (inactive) | 6.17 µM (inactive) | 36.1 µM (inactive) | > 55.5 | 13.6 µM (inactive) | 54.6 µM (inactive) | > 45.7 µM (inactive) | > 100 µM (inactive) | > 71.3 µM (inactive) | 15.1 µM (inactive) | 57.8 µM (inactive) | 8.02 µM (inactive) | 6.07 µM (inactive) | > 60.5 µM (inactive) | 75.9 µM (inactive) | 9.77 µM (inactive)
8 | COC(=O)C(Cc1ccc(Oc2cc(CC(NC(=O)c3ccccc3)C(=O)OC)ccc2OC)cc1)NC(=O)c1ccccc1 (configuration not stated) | 8.49 µM (inactive) | 19.7 µM (inactive) | 16.6 µM (inactive) | 13.5 µM (inactive) | 18.2 µM (inactive) | 15.2 µM (inactive) | 28.7 | 6.82 µM (inactive) | 16.9 µM (inactive) | 0.948 µM (active) | 21.9 µM (inactive) | 27.5 µM (inactive) | 29.7 µM (inactive) | 37.5 µM (inactive) | 7.35 µM (inactive) | 46.3 µM (inactive) | 35.2 µM (inactive) | 30.1 µM (inactive) | 26.6 µM (inactive)
9 | CCOC(=O)/C=C(/C(=O)OCC)n1c(=O)c(C)cn(C2CC(N=[N+]=[N-])C(CO)O2)c1=O (configuration not stated) | 29.4 µM (inactive) | 44.8 µM (inactive) | 19.8 µM (inactive) | 16.4 µM (inactive) | – | 54.3 µM (inactive) | 29.7 | 32.9 µM (inactive) | 43.5 µM (inactive) | < 0.01 µM (active) | 20.7 µM (inactive) | 45.4 µM (inactive) | 56.9 µM (inactive) | 50.1 µM (inactive) | 22.1 µM (inactive) | 44.1 µM (inactive) | > 100 µM (inactive) | 22.1 µM (inactive) | 35.7 µM (inactive)
10 | CCOC(=O)NC(Nc1cccc(C(F)(F)F)c1)(C(F)(F)F)C(F)(F)F | > 100 µM (inactive) | > 100 µM (inactive) | > 100 µM (inactive) | > 100 µM (inactive) | > 100 µM (inactive) | > 100 µM (inactive) | > 100 | > 100 µM (inactive) | > 100 µM (inactive) | > 100 µM (inactive) | > 100 µM (inactive) | > 100 µM (inactive) | > 100 µM (inactive) | > 100 µM (inactive) | > 100 µM (inactive) | > 100 µM (inactive) | > 100 µM (inactive) | > 100 µM (inactive) | > 100 µM (inactive)
11 | CC(C)(Oc1ccc(Cl)cc1)C(=O)N(C(=O)N1CCN(c2ccccc2)CC1)c1ccccc1 | > 100 µM (inactive) | > 100 µM (inactive) | 8.59 µM (inactive) | 92.5 µM (inactive) | 4.68 µM (inactive) | > 100 µM (inactive) | 6.61 | 9.71 µM (inactive) | > 100 µM (inactive) | 4.12 µM (inactive) | > 100 µM (inactive) | 8.09 µM (inactive) | > 100 µM (inactive) | 6.22 µM (inactive) | 5.62 µM (inactive) | 84.9 µM (inactive) | 7.05 µM (inactive) | 34.4 µM (inactive) | 6.25 µM (inactive)
12 | CC(=O)Nc1cc2nc3n(c2cc1C)CCC3OC(C)=O (configuration not stated) | > 100 µM (inactive) | > 100 µM (inactive) | > 100 µM (inactive) | > 100 µM (inactive) | – | > 100 µM (inactive) | > 100 | > 100 µM (inactive) | > 100 µM (inactive) | > 100 µM (inactive) | > 100 µM (inactive) | > 100 µM (inactive) | > 100 µM (inactive) | > 100 µM (inactive) | > 100 µM (inactive) | > 100 µM (inactive) | > 100 µM (inactive) | > 100 µM (inactive) | > 100 µM (inactive)
13 | CC(=O)N1c2ccccc2C(C)C1c1[nH]c2ccccc2c1C (configuration not stated) | 20.3 µM (inactive) | 23.4 µM (inactive) | 28.1 µM (inactive) | 16.3 µM (inactive) | 13.7 µM (inactive) | 39.7 µM (inactive) | 27.2 | 32.3 µM (inactive) | 28.3 µM (inactive) | 19.7 µM (inactive) | 18.6 µM (inactive) | 25.3 µM (inactive) | 19.8 µM (inactive) | 16.1 µM (inactive) | 18.1 µM (inactive) | 22.7 µM (inactive) | 24.1 µM (inactive) | 11 µM (inactive) | 20.2 µM (inactive)
14 | COC(=O)C1=COC2OC3C(C(C)O)C(=O)OC34C=CC1C24 (configuration not stated) | 31 µM (inactive) | 49 µM (inactive) | 40.1 µM (inactive) | > 100 µM (inactive) | 57 µM (inactive) | 36.6 µM (inactive) | 31.9 | 44.7 µM (inactive) | 57.1 µM (inactive) | 24.3 µM (inactive) | > 100 µM (inactive) | > 100 µM (inactive) | 35.8 µM (inactive) | 37.2 µM (inactive) | > 100 µM (inactive) | 98.6 µM (inactive) | 25 µM (inactive) | 30.1 µM (inactive) | 44 µM (inactive)
15 | N#Cc1c(-c2ccc(Cl)cc2)c(C#N)c(=O)n(NS(=O)(=O)c2ccccc2)c1S | – | – | 32.6 µM (inactive) | > 10 µM (inactive) | 14.2 µM (inactive) | 25.9 µM (inactive) | 21.9 | 24.9 µM (inactive) | 52.8 µM (inactive) | 21.6 µM (inactive) | 26.7 µM (inactive) | 30.3 µM (inactive) | 28.7 µM (inactive) | – | 46.7 µM (inactive) | 27.7 µM (inactive) | 21.2 µM (inactive) | 18.3 µM (inactive) | –
